{"source": "patent US12018006B2", "about": "“Method of producing EPD and analogues thereof” (priority 2017, dated 2024)", "key": {"[1]": {"system": "ovarian cancer cell line JC", "assay": "In vitro cytotoxic activity, Presto blue assay, ovarian cancer cell line JC", "type": "cell-based", "experimental": "(§1) The cytotoxic activity of the compounds was tested using methods as described earlier (van Haaften et al. Journal of Experimental & Clinical Cancer Research (2015) 34:38). In short, 3×10^4 cells of the ovarian cancer cell line JC (Van Haaften-Day et al. Cancer Res. 1983) were seeded in 24-well plates (Costar, Denmark) in DMEM/F12 medium (Invitrogen) containing 10% of Fetal Calf Serum (FCS, Sigma), 50 U penicillin and 50 μg/mL streptomycin (Invitrogen). The cells were incubated at 37° C. in a 9% CO2 incubator with 95% humidity. After 24 hours, solutions 1-6 were added to the cell cultures.\n(§2) Cytotoxic activity of each of the compounds was determined after 72 hours in a standard Presto blue assay (see Van Haaften et al. J Exp Clin Cancer Res. 2015 34(1): 38 for details on the method). Each compound's solution as described above was diluted 100, 200 and 400 times respectively."}, "[2]": {"system": "cervical cancer cell line Siha", "assay": "Effect of synthetic EPD on growth of cervical cancer cell line Siha", "type": "cell-based", "details": "for cancer cell growth reduced by: Siha, FIG. 1B", "experimental": "(§3) Further, the effect of synthetic EPD (1-3 μg/mL) was studied on normal fibroblasts and compared with the effect on a cervical cancer cell line Siha (FIG. 1B). […] At a concentration of 1 μg/mL, fibroblast growth was unaffected, whereas cancer cell growth was reduced by almost 20%. At a concentration of […], fibroblast growth was reduced by almost 20%, whereas cancer cell growth was reduced by more than 80%, and at a concentration of 3 μg/mL, fibroblast growth was reduced by 35%, whereas cancer cell growth was reduced by almost 97%."}, "[3]": {"system": "normal fibroblasts", "assay": "Effect of synthetic EPD on growth of normal fibroblasts", "type": "cell-based", "details": "FIG. 1B", "experimental": "as §3"}, "[4]": {"system": "ovarian cancer cell line A2780AD", "assay": "Growth of multi-drug resistant ovarian cancer cell line A2780AD after 72 hrs", "type": "cell-based, human", "details": "for growth of the cell line, % of the control value: 72 hrs, control (medium) = 100%", "experimental": "as §1, §2\nAlso the effect of synthetic EPD was tested on an ovarian cancer cell line A2780AD, ATCC using methods as described above, whereby the experiment was ended after 72 hrs. Cell line A2780AD, a multi-drug resistant human ovarian cancer cell line, is resistant to paclitaxel. It was shown that at 1, 1.5 and 2 μg/mL of synthetic EPD, the growth of the cell line after 72 hrs was reduced to 40%, 13% and 8% of the control value (100%, medium), respectively."}, "[5]": {"system": "normal cells", "details": "cited from earlier work"}, "[6]": {"system": "ovarian cancer", "details": "cited from earlier work"}}, "data": [{"smiles": "C=C1C(=O)O[C@H]2CC3=CCCC[C@]3(C)C[C@@H]12", "note": "(relative stereo) [racemic mixture of the (mono) methyl analogue, (rel3aS,4aR,9aS)-4α-methyl-3-methylene-3a,4,4a,5,6,7,9,9a-octahydronaphtho[2,3-b]furan-2(3H)-one]", "values": [{"measurement": "cytotoxic activity", "setting": "[1]; JC cells, 72 hours, solutions diluted 100, 200 and 400 times, FIG. 1A, compared with natural EPD", "result": "demonstrates cytotoxic activity"}]}, {"smiles": "C=C1C(=O)O[C@@H]2CC3=CCC[C@H](C)[C@@]3(C)C[C@H]12", "note": "(single isomer, unassigned) [synthetic EPD, eremophila-1(10)-11(13)-dien-12,8β-olide]", "values": [{"measurement": "dose-dependent effect on cancer cells compared with fibroblasts", "setting": "[2]; Siha vs normal fibroblasts, 1-3 μg/mL", "result": "much higher on cancer cells than on fibroblasts"}, {"measurement": "cancer cell growth reduced by", "setting": "[2]; synthetic EPD 1 μg/mL", "result": "~20", "unit": "%"}, {"measurement": "cancer cell growth reduced by", "setting": "[2]; synthetic EPD 3 μg/mL", "result": "~97", "unit": "%"}, {"measurement": "cancer cell growth reduced by", "setting": "[2]; synthetic EPD 2 g/mL", "result": "more than 80%"}, {"measurement": "fibroblast growth", "setting": "[3]; synthetic EPD 1 μg/mL", "result": "unaffected"}, {"measurement": "fibroblast growth reduced by", "setting": "[3]; synthetic EPD 2 μg/mL", "result": "~20", "unit": "%"}, {"measurement": "fibroblast growth reduced by", "setting": "[3]; synthetic EPD 3 μg/mL", "result": 35, "unit": "%"}, {"measurement": "growth of the cell line, % of the control value", "setting": "[4]; 1 μg/mL", "result": 40, "unit": "%"}, {"measurement": "growth of the cell line, % of the control value", "setting": "[4]; 1.5 μg/mL", "result": 13, "unit": "%"}, {"measurement": "growth of the cell line, % of the control value", "setting": "[4]; 2 μg/mL", "result": 8, "unit": "%"}, {"measurement": "inhibition of JC cells compared with paclitaxel", "setting": "[1]; JC as control cell line, FIG. 1C", "result": "at least as effective as paclitaxel"}]}, {"smiles": "C=C1C(=O)O[C@@H]2CC3=CCC[C@H](C)[C@@]3(C)C[C@H]12", "note": "[EPD, eremophila-1(10)-11(13)-dien-12,8β-olide]", "values": [{"measurement": "cytotoxic effects towards normal cells", "setting": "[5]", "result": "not towards normal cells"}, {"measurement": "cytotoxic effects towards ovarian cancer", "setting": "[6]", "result": "potent cytotoxic effects"}]}, {"smiles": "CC(=O)O[C@H]1C(=O)[C@@]2(C)[C@H]([C@H](OC(=O)c3ccccc3)[C@]3(O)C[C@H](OC(=O)[C@H](O)[C@@H](NC(=O)c4ccccc4)c4ccccc4)C(C)=C1C3(C)C)[C@]1(OC(C)=O)CO[C@@H]1C[C@@H]2O", "note": "[paclitaxel, reference compound]", "values": [{"measurement": "resistance of cell line A2780AD to the drug", "setting": "[4]; 0.375 μg/mL", "result": "full resistance"}]}]}
